pIC50: −log10 of the molar value. Activity calls are given as the source filed them. No cut-off for these calls is given here.
Columns and labels:
[1] = tested on: CT26; experiment: Antiproliferative activity against mouse CT26 cells assessed as reduction in cell viability incubated for 48 hrs by CCK-8 assay; conditions: CT26, 48 h
[2] = Inhibition of Wnt/beta-catenin signaling in mouse CT26 cells assessed as reduction in Axin2 expression incubated for 24 hrs by qPCR analysis; conditions: CT26, 24 h
[3] = molecular target: T1, beta-catenin-B-cell lymphoma 9 protein complex (Homo sapiens, UniProt P35222); experiment: Inhibition of beta-catenin (unknown origin) to BCL9-FAM (unknown origin) protein-protein interaction preincubated for 2 hrs followed by BCL9 addition and measured after 2 hrs by fluorescence polarization assay; format: protein-complex assay
T1 sequence (P35222 whole entry): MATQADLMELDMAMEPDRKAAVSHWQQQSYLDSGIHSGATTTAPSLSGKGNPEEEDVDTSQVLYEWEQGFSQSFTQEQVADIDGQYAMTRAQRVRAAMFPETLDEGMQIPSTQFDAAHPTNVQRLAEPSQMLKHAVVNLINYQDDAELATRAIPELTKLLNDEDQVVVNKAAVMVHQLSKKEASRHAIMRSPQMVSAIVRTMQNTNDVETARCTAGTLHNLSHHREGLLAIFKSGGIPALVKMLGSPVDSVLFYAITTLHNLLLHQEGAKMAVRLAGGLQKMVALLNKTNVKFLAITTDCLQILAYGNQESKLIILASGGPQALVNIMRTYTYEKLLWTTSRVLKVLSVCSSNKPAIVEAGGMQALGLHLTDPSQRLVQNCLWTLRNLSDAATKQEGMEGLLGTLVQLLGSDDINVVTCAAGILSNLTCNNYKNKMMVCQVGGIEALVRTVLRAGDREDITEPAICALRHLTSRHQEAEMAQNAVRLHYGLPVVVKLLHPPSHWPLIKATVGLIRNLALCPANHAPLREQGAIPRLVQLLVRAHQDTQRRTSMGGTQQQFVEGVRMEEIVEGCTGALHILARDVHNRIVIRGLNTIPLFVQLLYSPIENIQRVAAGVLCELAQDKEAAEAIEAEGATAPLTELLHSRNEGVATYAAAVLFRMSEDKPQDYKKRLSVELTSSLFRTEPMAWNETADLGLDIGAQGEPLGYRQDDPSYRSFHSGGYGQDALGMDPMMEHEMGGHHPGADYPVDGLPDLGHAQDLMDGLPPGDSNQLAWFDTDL
T1 sequence (O00512 whole entry): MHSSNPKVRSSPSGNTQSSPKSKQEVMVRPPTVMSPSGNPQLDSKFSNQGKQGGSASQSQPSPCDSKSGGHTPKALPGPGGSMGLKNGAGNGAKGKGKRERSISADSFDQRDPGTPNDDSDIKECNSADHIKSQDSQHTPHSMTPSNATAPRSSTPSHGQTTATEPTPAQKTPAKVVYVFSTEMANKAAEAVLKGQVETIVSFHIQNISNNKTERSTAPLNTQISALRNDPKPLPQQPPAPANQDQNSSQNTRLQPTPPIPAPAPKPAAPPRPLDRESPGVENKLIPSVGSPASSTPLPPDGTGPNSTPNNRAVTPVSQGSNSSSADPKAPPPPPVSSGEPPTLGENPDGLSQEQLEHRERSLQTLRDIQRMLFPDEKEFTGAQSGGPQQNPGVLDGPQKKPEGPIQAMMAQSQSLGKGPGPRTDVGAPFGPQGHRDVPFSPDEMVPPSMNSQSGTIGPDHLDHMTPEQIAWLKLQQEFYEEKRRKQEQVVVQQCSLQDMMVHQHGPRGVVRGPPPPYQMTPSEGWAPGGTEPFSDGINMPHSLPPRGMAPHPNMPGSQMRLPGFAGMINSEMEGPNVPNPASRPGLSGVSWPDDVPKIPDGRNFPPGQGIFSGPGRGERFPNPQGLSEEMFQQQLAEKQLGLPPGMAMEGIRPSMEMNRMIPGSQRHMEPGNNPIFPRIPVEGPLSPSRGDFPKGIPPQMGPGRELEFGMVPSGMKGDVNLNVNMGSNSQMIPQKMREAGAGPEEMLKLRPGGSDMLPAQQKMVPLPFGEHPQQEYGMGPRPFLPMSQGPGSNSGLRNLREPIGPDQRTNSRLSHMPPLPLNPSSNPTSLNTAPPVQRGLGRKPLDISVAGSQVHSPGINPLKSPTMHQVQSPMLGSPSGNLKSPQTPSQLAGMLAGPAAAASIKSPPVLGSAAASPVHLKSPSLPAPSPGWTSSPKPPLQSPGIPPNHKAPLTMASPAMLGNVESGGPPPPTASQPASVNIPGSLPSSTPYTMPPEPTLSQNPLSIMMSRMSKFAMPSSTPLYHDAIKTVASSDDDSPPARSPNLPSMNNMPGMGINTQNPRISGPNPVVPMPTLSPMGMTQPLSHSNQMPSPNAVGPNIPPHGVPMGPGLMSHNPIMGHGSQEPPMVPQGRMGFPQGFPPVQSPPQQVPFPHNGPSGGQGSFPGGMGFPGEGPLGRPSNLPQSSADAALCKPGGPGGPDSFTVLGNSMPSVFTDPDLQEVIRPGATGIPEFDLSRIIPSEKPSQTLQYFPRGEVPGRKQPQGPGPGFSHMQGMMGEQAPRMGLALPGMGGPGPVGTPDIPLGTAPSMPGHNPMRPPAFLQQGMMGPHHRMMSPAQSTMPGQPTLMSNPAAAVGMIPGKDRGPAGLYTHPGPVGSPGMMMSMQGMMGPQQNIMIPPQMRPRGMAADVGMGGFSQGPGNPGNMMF

[4] = Toxicity in BALB/c mouse assessed as body weight loss at 30 mg/kg, ip administered once daily measured after 14 days; format: organism-based; conditions: in vivo, 336 h, time 14 day
[5] = tested on: CT26; experiment: Antitumor activity against mouse CT26 cells implanted in BALB/c mouse assessed as tumor growth inhibition at 30 mg/kg, ip administered once daily and measured on day 14; format: functional; conditions: CT26, 336 h, time 14 day, read-out: TGI
[6] = Inhibition of Wnt/beta-catenin signaling in human HCT116 cells incubated for 24 hrs by TCF/LEF reporter assay; conditions: HCT-116, 24 h
[7] = tested on: CT26; experiment: Inhibition of Wnt/beta-catenin signaling in mouse CT26 cells assessed as reduction in Axin2 expression incubated for 24 hrs by Western blot analysis; format: cell-based; conditions: dose 5-20 µM
[8] = Drug concentration in human HCT-116 cells assessed as retention ratio at 2 uM incubated for 24 hrs by HPLC-MS analysis; format: ADME, cell-based; conditions: hct-116, 24 h
[9] = Drug concentration in human HCT-116 cells at 2 uM incubated for 24 hrs by HPLC-MS analysis; format: ADME, cell-based; conditions: hct-116, 24 h
[10] = Induction of immune microenvironment in BALB/c mouse spleen assessed as increase in granzyme B at 5 to 10 uM after 24 hrs by flow cytometry analysis (reference value: 16.7 %); format: functional; conditions: dose 5-10 µM
[11] = tested on: CT26; experiment: Induction of apoptosis in mouse CT26 cells assessed as late apoptosis at 5 to 40 uM incubated for 24 hrs by annexin V and PI staining based flow cytometry analysis; format: functional, cell-based; conditions: dose 5-40 µM
[12] = tested on: CT26; experiment: Antitumor activity against mouse CT26 cells implanted in BALB/c mouse assessed as increase in granzyme B expression at 30 mg/kg, ip administered once daily and measured on day 14 by qPCR analysis; format: functional, organism-based; conditions: time 14.0 day
[13] = Inhibition of Wnt/beta-catenin signaling in human HCT-116 cells assessed as reduction in Axin2 expression incubated for 24 hrs by qPCR analysis; conditions: HCT-116, 24 h
[14] = Inhibition of Wnt/beta-catenin signaling in BCL9 knockdown mouse CT26 cells assessed as reduction in Axin2 expression incubated for 24 hrs by qPCR analysis; conditions: CT26, 24 h
[15] = tested on: HCT-116; experiment: Antiproliferative activity against human HCT-116 cells assessed as reduction in cell viability incubated for 48 hrs by CCK8 assay; conditions: HCT-116, 48 h
[16] = tested on: RKO; experiment: Antiproliferative activity against human RKO cells assessed as reduction in cell viability incubated for 48 hrs by CCK8 assay
[17] = tested on: HEK293; experiment: Antiproliferative activity against HEK293 cells assessed as reduction in cell viability incubated for 48 hrs by CCK8 assay; conditions: Homo sapiens, HEK293, 48 h
[18] = tested on: CT26; experiment: Antitumor activity against mouse CT26 cells implanted in BALB/c mouse assessed as induction of immune microenvironment at 30 mg/kg, ip administered once daily and measured on day 14 by qPCR analysis; format: functional, organism-based; conditions: time 14.0 day
[19] = tested on: CT26; conditions: Mus musculus, dose 30.0 mg/kg, route ip, time 14.0 day
Description: In vivo inhibition of Wnt/beta-catenin signaling in mouse CT26 cells implanted in BALB/c mouse assessed as reduction in Axin2 expression at 30 mg/kg, ip administered once daily and measured on day 14 by qPCR analysis

[20] = tested on: CT26; experiment: Antitumor activity against mouse CT26 cells implanted in BALB/c mouse assessed as downregulation of interleukin-10 gene expression at 30 mg/kg, ip administered once daily and measured on day 14 by qPCR analysis; format: functional, organism-based; conditions: time 14.0 day
[21] = tested on: CT26; experiment: Induction of apoptosis in mouse CT26 cells assessed as early apoptosis at 5 to 40 uM incubated for 24 hrs by annexin V and PI staining based flow cytometry analysis; format: functional, cell-based; conditions: dose 5-40 µM

Structure (SMILES)	pIC50 [1]	pIC50 [2]	pIC50 [3]	other results
CCN(CC)CCCOc1cc(-c2oc3cc(O)cc(O)c3c(=O)c2O)ccc1O	4.63	4.95	4.93	
COc1cc(OCCCN2CCOCC2)c2c(=O)c(O)c(-c3ccc(O)c(O)c3)oc2c1			5.22	
CN1CCN(CCCOc2cc(O)c3c(=O)c(O)c(-c4ccc(O)c(O)c4)oc3c2)CC1			5.04	
CN1CCN(CCOc2cc(-c3oc4cc(O)cc(O)c4c(=O)c3O)ccc2O)CC1	4.93	4.75	4.10	
O=c1c(O)c(-c2ccc(O)c(OCCN3CCOCC3)c2)oc2cc(O)cc(O)c12	5.00	4.42	4.52	
O=c1c(O)c(-c2ccc(O)c(O)c2)oc2cc(OCCCN3CCOCC3)cc(O)c12			4.91	
O=c1c(O)c(-c2ccc(O)c(OCCN3CCCCCC3)c2)oc2cc(O)cc(O)c12	5.15	4.86	4.43	
O=c1c(O)c(-c2ccc(O)c(O)c2)oc2c(-c3ccccc3)c(O)cc(O)c12			4.73	
O=C1[C@H](Cc2ccc(O)cc2)N2C(=O)CCN(C(=O)NCc3ccccc3)[C@H]2CN1Cc1cccc2ccccc12				Activity [4]: Non-Toxic; inhibition in vivo at 30 mg/kg [5]: 40.8%
CCN(CC)CCOc1cc(-c2oc3cc(O)cc(O)c3c(=O)c2O)ccc1O	4.93	4.39	4.55	
O=c1c(O)c(-c2ccc(O)c(O)c2)oc2c(-c3ccc(O)cc3)c(O)cc(O)c12			5.35	
O=c1c(O)c(-c2ccc(O)c(OCCCN3CCCC3)c2)oc2cc(O)cc(O)c12	5.20	4.72	4.59	
COc1cc(OCCCN2CCN(C)CC2)c2c(=O)c(O)c(-c3ccc(O)c(O)c3)oc2c1			5.01	
O=c1c(O)c(-c2ccc(O)c(OCCN3CCCCC3)c2)oc2cc(O)cc(O)c12	5.06	4.64	4.51	
O=c1c(O)c(-c2ccc(O)c(OCCN3CCCC3)c2)oc2cc(O)cc(O)c12	5.09	4.75	4.25	
CN1CCN(CCCOc2cc(-c3oc4cc(O)cc(O)c4c(=O)c3O)ccc2O)CC1	5.49	5.55		pIC50 [6]: 4.82; inhibition [7]: Dose-Dependent Effect; Drug uptake [8]: 31.31%; Drug uptake [9]: 0.63 µM; Activity [10]: 31.1%; Activity [4]: Non-Toxic; Activity [11]: Active; Activity [12]: Active; pIC50 [13]: 5.01; inhibition in vivo at 30 mg/kg [5]: 81.4%; pIC50 [14]: 4.55; pIC50 [15]: 5.36; pIC50 [16]: 4.57; pIC50 [17]: 4.75; Activity [18]: Active; inhibition [19]: Active; Activity [20]: Active; Activity [21]: Active
O=c1c(O)c(-c2ccc(O)c(OCCCN3CCOCC3)c2)oc2cc(O)cc(O)c12	5.11	5.20		
O=c1c(O)c(-c2ccc(O)c(O)c2)oc2cc(O)cc(O)c12 [QUERCETIN]	4.84	5.11		pIC50 [6]: 5.33; inhibition [7]: Dose-Dependent Effect; Activity [4]: Non-Toxic; pIC50 [13]: 5.45; inhibition in vivo at 30 mg/kg [5]: 69.4%; pIC50 [14]: 4.63; pIC50 [15]: 4.98
O=c1c(O)c(-c2ccc(O)c(OCCCN3CCCCC3)c2)oc2cc(O)cc(O)c12	5.14	4.53	4.73	
O=c1c(O)c(-c2ccc(O)c(OCCCN3CCCCCC3)c2)oc2cc(O)cc(O)c12	4.46	4.46	4.70	
